Data as given in US20090062124A1, “Ethephon-induced enhancement of seedling development” (priority 2007, published 2009).
Where “and” joins values, the source holds several entries; their conditions need not be identical. Equal values may be shown once.

Tests used:
Format in all cases: in vivo
Corn seedlings = Corn seedlings sprayed with ethephon in greenhouse conditions
Description: (§1) The effects of ethephon treatment on the root development of corn and wheat was evaluated. Corn and wheat seedlings at the two to three leaf stage were treated with ethephon in greenhouse conditions. All plants in the treatment groups received a single application by spraying of various concentrations of aqueous solutions of ethephon (0, 1.0, 3.8, 7.6, 11.4, 15.2 and 30.4 mM ethephon for wheat, and 0, 3.8, 5.7, 7.6, 11.4, 15.2, 30.4, 45.6, and […] ethephon for corn) to plants at the cotyledon stage. Root development, measured as tap root and lateral root lengths for corn and tap root length for wheat, and shoot length and root hair production were also determined for wheat, seven days after spraying. To evaluate the effect on as a seed treatment, wheat and corn seeds were soaked in aqueous ethephon solutions (90 mM) for 10 seconds prior to planting.

[1] = tested on: dryland field grown cotton; assay: Dryland field grown cotton sprayed with ethephon, seed cotton yield; settings: 3.8 mM single spray at cotyledon, two leaf or four leaf stage; vs non-treated controls; FIG. 1
Description: The effects of ethephon treatment on dryland field grown cotton were measured. All plants in the treatment groups received a single application by spraying of 3.8 mM ethephon at either the cotyledon stage, two leaf stage, and four leaf stage. Cotton yields, measured as seed cotton weight, were measured at the end of the season following harvest.

[2] = tested on: Soybean seedlings (46G02 RR/STS, Kelly Green Seeds); assay: Soybean seedlings sprayed with ethephon in greenhouse conditions
Description: Soybean seedlings (46G02 RR/STS, Kelly Green Seeds) at the cotyledon—second leaf stage were treated with ethephon in greenhouse conditions to evaluate the effects of ethephon application. All plants in the treatment groups received a single application by spraying of various concentrations of aqueous solutions of ethephon (0, 1.0, 3.8, 7.6, and 15.2 mM ethephon) to plants at the cotyledon stage. Root development, measured as tap root and lateral root lengths, and seedling growth were determined 7 days after spraying.

cotton seeds = assay: Cotton seeds soaked in aqueous ethephon solutions prior to planting; settings: seeds soaked 10 seconds; 10, 20, 30 and 50 mM tested
Description: (§2) Cotton plants were treated with ethephon in greenhouse conditions to evaluate the effects of ethephon application. All plants in the treatment groups received a single application by spraying of various concentrations of aqueous solutions of ethephon (0, 1.0, 3.8, 7.6, and 15.2 mM ethephon) to plants at the cotyledon stage. Lateral root production, leaf numbers and leaf size, and number of cotton squares were determined 7 to 80 days after spraying. To evaluate the effect on as a seed treatment, cotton seeds were soaked in aqueous ethephon solutions (10, 20, 30, and 50 mM) for 10 seconds prior to planting.

Cotton plants = Cotton plants sprayed with ethephon at the cotyledon stage in greenhouse conditions
Description: as §2

wheat seedlings = assay: Wheat seedlings sprayed with ethephon in greenhouse conditions; settings: between 1 mM and 7.6 mM ethephon, seven days after spraying, vs untreated controls
Description: as §1

[3] = between 3.8 and 11.4 mM ethephon, seven days after spraying, vs untreated controls
[4] = 7 days after spraying, vs untreated controls
[5] = spray, 0, 1.0, 3.8, 7.6 and 15.2 mM tested
[6] = sprayed cotton, 7 to 80 days after spraying

O=P(O)(O)CCCl [Ethephon, (2-chloroethyl)phosphonic acid]
lateral root length (Corn seedlings; [3]): statistically significant increases
taproot length (Corn seedlings; [3]): statistically significant increases
ethephon concentration giving optimum results (Corn seedlings; spray, FIG. 4): 7.6 mM
cotton yields (seed cotton weight) [1]: significantly increased yields
seedling growth [2, 4]: statistically significant increases
taproot and lateral root development [2, 4]: statistically significant increases
ethephon concentration giving optimum results [2, 5]: 3.8 mM
optimum seed soak concentration (cotton seeds): 30 mM
increase in fruiting sites (cotton squares) (Cotton plants; 3.8 mM ethephon vs control): 30%
Average # of squares (Cotton plants; 3.8 mM ethephon, single spray at cotyledon stage, greenhouse, average of 3 reps (control 42)): 55
Number of squares (Cotton plants; 3.8 mM ethephon, single spray at cotyledon stage, greenhouse, per rep): 58 and 54 and 53
ethephon concentration giving optimum results (Cotton plants; [5]): 3.8 mM
fruiting (number of cotton squares) (Cotton plants; [6]): increased fruiting
lateral root development (Cotton plants; [6]): statistically significant increases
leaf size (Cotton plants; [6]): without a decrease in leaf size
rate of leaf production (measured as numbers of leaves) (Cotton plants; [6]): statistically significant increases
shoot length (wheat seedlings): statistically significant increases
taproot length (wheat seedlings): statistically significant increases
